Test results reported in patent US4151300A, “Acetohydroxamic acids” (Laboratoire L. Lafon, priority 1976, dated 1979).

What was measured:
[1] = tested on: central nervous system; conditions: prior art; cited from earlier work
[2] = tested on: mice; assay: toxicity (isolated mice, intraperitoneal); type: in vivo
Method: (§1) The following text summarises a part of the results of the tests which were carried out with the products according to the invention, these products (unless otherwise stated) being administered intraperitoneally, in suspension in a gum solution (gum arabic), in a volume of 20 ml/kg in the case of mice and of 5 ml/kg in the case of rats.

[3] = tested on: mice; assay: interaction with reserpine (hypothermia, ptosis); type: in vivo; conditions: i.p.; for reserpine-induced hypothermia: 512 mg/kg
[4] = tested on: mice; assay: interaction with oxotremorine (temperature, trembling, peripheral cholinergic symptoms); type: in vivo; conditions: mice, i.p.
[5] = tested on: mice; assay: spontaneous motility (actimeter); type: in vivo; conditions: i.p.
Method: as §1
Thirty minutes after having been given CRL 40,373, the mice (6 per dose, 12 comparison animals) are placed in an actimeter, where their motility is recorded for half an hour.
Thirty minutes after having been given CRL 40,385, the mice are placed in actimeters where their motility is recorded for half an hour.

[6] = tested on: mice; assay: motility reduced by habituation to a cage (residual motility); type: in vivo; conditions: i.p.
Method: as §1
Mice which have remained for 18 hours in the actimeters are given CRL 40,373. They are immediately replaced in their cages and, after a period of half an hour, their motility is recorded for 30 minutes (6 animals per dose, 12 comparison animals).
After remaining for 18 hours in the actimeters, the mice receive CRL 40,385. Immediately afterwards they are replaced in their cage and half an hour afterwards the recording of the motility starts and is continued for 30 minutes.

[7] = tested on: mice; assay: motility reduced by hypoxia treatment (motor recovery); type: in vivo; conditions: for motor recovery after hypoxia/anoxia by pressure reduction: mice, i.p.
[8] = tested on: mice; assay: inter-group aggressiveness (number of fights); type: in vivo
Method: as §1
After three weeks' residence in each of the halves of a cage divided by an opaque partition, the mice receive CRL 40,373 thirty minutes before being brought together by withdrawing the partition.
After 18 days' residence on either side of a partition separating their cage in the middle, groups of 3 mice receive CRL 40,385 and are brought together half an hour later by withdrawing the partition, and the number of fights which take place in the course of 15 minutes is noted.

[9] = tested on: rats; assay: interaction with amphetamine (stereotypies in rats); type: in vivo; conditions: i.p., 256 mg/kg
Method: as §1
30 minutes after the administration of CRL 40,373, amphetamine is injected intraperitoneally at a dose of 2 mg/kg.
Thirty minutes after the administration of CRL 40,385 the rats are given an intraperitoneal injection of 2 mg/kg of amphetamine (6 animals per dose).

[10] = tested on: central nervous system; assay: psychopharmacological study / behaviour; type: in vivo, mice; conditions: high dose (256 mg/kg)

SMILES: O=C(CC[S+]([O-])c1ccc(F)cc1)NO (centres unmarked) [3-(p-fluorophenylsulphinyl)-propionohydroxamic acid]
- usefulness in therapy [1]: of interest in the treatment of the central nervous system

SMILES: O=C(CC[S+]([O-])C(c1ccccc1)c1ccccc1)NO (centres unmarked) [3-benzhydrylsulphinyl-propionohydroxamic acid]
- usefulness in therapy [1]: of interest in the treatment of the central nervous system

SMILES: O=C(CCC[S+]([O-])c1ccc(Cl)cc1)NO (centres unmarked) [4-(p-chlorophenylsulphinyl)-butyrohydroxamic acid]
- usefulness in therapy [1]: of interest in the treatment of the central nervous system

SMILES: O=C(CCC[S+]([O-])c1ccc(F)cc1)NO (centres unmarked) [4-(p-fluorophenylsulphinyl)-butyrohydroxamic acid]
- usefulness in therapy [1]: of interest in the treatment of the central nervous system

SMILES: O=C(CCC[S+]([O-])C(c1ccccc1)c1ccccc1)NO (centres unmarked) [4-benzhydrylsulphinyl-butyrohydroxamic acid]
- usefulness in therapy [1]: of interest in the treatment of the central nervous system

SMILES: O=C(CCC[S+]([O-])c1ccccc1)NO (centres unmarked) [4-phenylsulphinylbutyrohydroxamic acid]
- usefulness in therapy [1]: of interest in the treatment of the central nervous system

SMILES: O=C(CC(O)COc1cccc2ccccc12)NO (stereo not drawn) [4-α-naphthyloxy-3-hydroxybutyrohydroxamic acid]
- usefulness in therapy [1]: inactive in therapy

SMILES: O=C(C[S+]([O-])Cc1ccc(Cl)cc1)NO (stereo not drawn) [CRL 40,411, α-(Chlorobenzylsulphinyl)-acetohydroxamic acid]
- LD-O (maximum non-lethal dose) ([2]; mice, i.p.): greater than 1,024 mg/kg

SMILES: CCC(C(=O)NO)C(=O)N(c1ccccc1)c1ccccc1 (centres unmarked) [CRL 40,439, 2-(N,N-Diphenylcarbamoyl)-butyrohydroxamic acid]
- LD-O (maximum non-lethal dose) ([2]; mice, i.p.): greater than 1,024 mg/kg
- symptoms / behaviour ([2]; mouse, in vivo, ip, 128 mg/kg): none of these symptoms is observed
- reserpine-induced ptosis [3]: does not affect reserpine-induced ptosis
- reserpine-induced hypothermia [3]: increases, at a dose of 512 mg/kg, the hypothermia-inducing effect of reserpine
- oxotremorine-induced trembling [4]: moderately reduces the intensity of the trembling movements due to oxotremorine
- temperature (oxotremorine-induced hypothermia) ([4]; 512 mg/kg): increases, at a dose of 512 mg/kg, the hypothermia-inducing effect of reserpine and of oxotremorine
- spontaneous motility ([5]; mice, 512 mg/kg): very great reduction in the spontaneous motility
- motility reduced by habituation to the cage ([6]; 128 mg/kg): causes a resumption of the motor activity in animals habituated to their cage
- motor recovery after hypoxia/anoxia by pressure reduction [7]: does not improve the motor recovery
- inter-group aggressiveness ([8]; mice, i.p.): moderately reduces the inter-group aggressiveness in mice

SMILES: O=C(CC(=O)N(C1CCCCC1)C1CCCCC1)NO [CRL 40,446, N,N-(Dicyclohexyl)-carbamoylacetohydroxamic acid]
- mortality ([2]; mouse, in vivo): does not cause any mortality whatsoever
- reserpine-induced ptosis [3]: ptosis induced by reserpine is not affected
- reserpine-induced hypothermia [3]: partially antagonises hypothermia induced by reserpine
- spontaneous motility ([5]; mice, 128 and 512 mg/kg): reduces the spontaneous motility in mice
- motility reduced by habituation to the cage [6]: does not cause any resumption in the motor activity of mice
- motor recovery after hypoxia/anoxia by pressure reduction [7]: does not cause any resumption in the motor activity of mice
- inter-group aggressiveness ([8]; mice, i.p.): reduces, to a moderate degree, inter-group aggressiveness in mice

SMILES: CC(C(=O)NO)N1C(=O)NC(c2ccccc2)(c2ccccc2)C1=O (centres unmarked) [CRL 40,447, 2-[3-(5,5-Diphenylhydantoinyl)]-propionohydroxamic acid]
- LD-O (maximum non-lethal dose) ([2]; mouse, in vivo, ip): greater than 1,024 mg/kg
- spontaneous motility ([5]; mice, 512 mg/kg): reduces the spontaneous motility of mice

SMILES: CCC1(c2ccccc2)NC(=O)N(CC(=O)NO)C1=O (centres unmarked) [CRL 40,450, 3-(5-Ethyl-5-phenyl-hydantoinyl)-acetohydroxamic acid]
- LD-O (maximum non-lethal dose) ([2]; mice, i.p.): greater than 1,024 mg/kg
- reserpine-induced hypothermia [3]: aggravates the hypothermia induced by reserpine
- temperature (oxotremorine-induced hypothermia) ([4]; 512 mg/kg): aggravates the hypothermia induced by reserpine and by oxotremorine
- oxotremorine-induced trembling ([4]; high dose (512 mg/kg)): reduces the intensity of the trembling movements due to oxotremorine
- spontaneous motility ([5]; mice, 512 mg/kg): reduction in the spontaneous motility of mice
- inter-group aggressiveness ([8]; mice, i.p., 512 and 256 mg/kg): reduces the inter-group aggressiveness in mice

SMILES: O=C(CC(=O)Nc1ccc(Cl)cc1)NO [CRL 40,464, N-(4-Chlorophenyl)-carbamoyl-acetohydroxamic acid]
- LD-O (maximum non-lethal dose) ([2]; mice, i.p.): greater than 1,024 mg/kg
- amphetamine-induced stereotypies [9]: reduces the intensity of amphetamine-induced stereotypies
- oxotremorine-induced trembling [4]: moderately reduces the intensity of the trembling movements
- temperature (oxotremorine-induced hypothermia) [4]: aggravates the hypothermia due to oxotremorine
- spontaneous motility [5]: reduces the spontaneous motility in mice
- motility reduced by habituation to the cage ([6]; 128 mg/kg): causes a resumption of the motor activity in animals habituated to their cage

SMILES: O=C(CN1C(=O)NC(c2ccc(Cl)cc2)(c2ccc(Cl)cc2)C1=O)NO [CRL 40,468, 3-(5,5-di-p-chlorophenyl-hydantoinyl)-acetohydroxamic acid]
- mortality ([2]; mouse, in vivo): found dead 24 hours after the injection
- mortality ([2]; mouse, in vivo, ip, 512 mg/kg): no mortality is observed
- symptoms / behaviour ([2]; mouse, in vivo, ip, 512 mg/kg): the symptoms are comparable
- aggressiveness ([8]; mice, i.p., large/high dose): reduces the number of fights

SMILES: O=C(C[S+]([O-])Cc1cccc2ccccc12)NO (stereo not drawn) [CRL 40,475, α-Naphthylmethylene-sulphinyl-acetohydroxamic acid]
- LD-O (maximum non-lethal dose) ([2]; mice, i.p.): greater than 1,024 mg/kg

SMILES: O=C(Cc1nc2ccccc2n1-c1ccccc1)NO [CRL 40,490, 2-(1-Phenyl-benzimidazolyl)-acetohydroxamic acid]
- LD-O (maximum non-lethal dose) ([2]; mice, i.p.): greater than 1,024 mg/kg

SMILES: O=C(CC(=O)Nc1ccc(Cl)c(Cl)c1)NO [CRL 40,491, 3,4-Dichlorophenylcarbamoylacetohydroxamic acid]
- LD-O (maximum non-lethal dose) ([2]; mice, i.p.): greater than 1,024 mg/kg
- mortality ([2]; mice, i.p., 1,024 mg/kg, 24 hours after administration): no mortality 24 hours after administration
- amphetamine-induced stereotypies [9]: reduces the intensity of amphetamine-induced stereotypies
- spontaneous motility ([5]; mice, 512 mg/kg): reduction in the spontaneous motility of mice
- motility reduced by habituation to the cage ([6]; 256 mg/kg): moderate resumption of the activity of mice habituated to their cage
- inter-group aggressiveness ([8]; mice, i.p., 256 mg/kg): reduces the inter-group aggressiveness of mice

SMILES: COc1cc(NC(=O)CC(=O)NO)cc(OC)c1OC [CRL 40,509, 3,4,5-Trimethoxyphenyl-carbamoyl-acetohydroxamic acid]
- anti-anoxia effect ([7]; 64 and 128 mg/kg): an effect of the anti-anoxia type
- anti-aggressive effect ([8]; very low doses (8 and 16 mg/kg)): an effect of the anti-aggressive type
- sedation [10]: sedation

SMILES: O=C(CNC(=O)Nc1ccccc1)NO [CRL 40,513, 5-Phenylureidoacetohydroxamic acid]
- LD-O (maximum non-lethal dose) ([2]; mouse, in vivo, ip): greater than 1,024 mg/kg
- symptoms / behaviour ([2]; mouse, in vivo, ip): sedation and hypothermia
- motor recovery after hypoxia/anoxia by pressure reduction [7]: improvement in the motor recovery of mice
- inter-group aggressiveness ([8]; mice, i.p.): anti-aggressive effect

SMILES: O=C(C[S+]([O-])C(c1ccccc1)c1ccccc1)NO (stereo not drawn) [β-benzhydrylsulphinyl-acetohydroxamic acid]
- usefulness in therapy [1]: of interest in the treatment of the central nervous system
